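Following 48 hours of exposure in 96-well plates, responses at five concentrations were used to interpolate endpoints linearly. GI50 marks 50% less growth.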 Activity calls are given as the source filed them. Cut-off read from the data, not from the text of the source: active = GI50 up to about 1.1 µM and inactive = higher. Peptide text beside a SMILES is read from it. * marks the point of attachment. Boc = CC(C)(C)OC(=O)*

Common to all, as to experiment: growth of human tumour cells (NCI), 48 h
The test system of test [1] is 786-0.
Test [2] relates to A498.
Test [3] relates to CAKI-1.
Test [4] relates to COLO 205.
For test [5], the system named is HCT-116.
Test [6] deals with HL-60.
Test [7] concerns HOP-62.
For test [8], the system named is HT-29.
Test [9] has as its system IGROV-1.
Test [10] has as its system KM12.
Test [11] concerns LOX IMVI.
The subject of test [12] is M14.
The test system of test [13] is MDA-MB-435.
For test [14], the system named is MDA-N.
Test [15] concerns Malme-3M.
The test system of test [16] is OVCAR-5.
The test system of test [17] is RPMI-8226.
The subject of test [18] is SK-MEL-5.
The test system of test [19] is SR.
For test [20], the system named is U-251.

Consider `CC(=O)Nc1ccc2c3c(cc(O)c2c1)N(C(=O)CCCCC(=O)Nc1ccc2c4c(cc(O)c2c1)N(C(=O)OC(C)(C)C)CC4CCl)CC3CCl` (stereo not given), for which the GI50 in [1] is 2.76 µM (inactive); in test [2] it was 1.94 µM (inactive); in test [3], 17.4 µM (inactive); in [4], 1.82 µM (inactive); in [5], 2.22 µM (inactive); in [6] it was 0.42 µM (active). Further, the GI50 was 3.05 µM (inactive) in [7]; 2.82 µM (inactive) in test [8]; 1.92 µM (inactive) in test [9]; 2.79 µM (inactive) in [10]; 2.19 µM (inactive) in test [11]; 3.27 µM (inactive) in test [12]. For the same compound, the GI50 is 1.78 µM (inactive) in [13]; 1.77 µM (inactive) in test [14]; 1.39 µM (inactive) in test [15]; 3.29 µM (inactive) in test [16]; 3.13 µM (inactive) in test [17]; 1.54 µM (inactive) in [18]. The GI50 in [19] was 0.137 µM (active); in test [20], 1.53 µM (inactive).
Consider `CC(NC(=O)OC(C)(C)C)C(=O)NC(Cc1ccccc1)C(=O)NCC(=O)O` (stereo not drawn) (Boc-Ala-Phe-Gly-OH; configuration not given here), for which the GI50 in [1], in test [2], in [3], in test [4], in test [5] and in test [6] was > 100 µM (inactive) in each case. The GI50 in test [7], in [8], in test [9], in test [10], in [11] and in [12] was > 100 µM (inactive) throughout. For the same compound, the GI50 in test [13], in [14], in test [15], in test [16], in [17] and in test [18] was > 100 µM (inactive) in each case. Moreover, the GI50 in [19] and in [20] was > 100 µM (inactive) each time.
With `COc1cc(/C=C2\C(=O)N(c3cccc(NC(C)=O)c3)C(c3ccccc3)S2(=O)=O)cc(OC)c1OC` (stereo not given), the GI50 in [1] was 88.5 µM (inactive); in [2], > 100 µM (inactive); in [3], > 100 µM (inactive); in test [4], 63.1 µM (inactive); in test [5] it was 37.8 µM (inactive); in test [6] it was 17.5 µM (inactive). Moreover, the GI50 in [7] is > 100 µM (inactive); in test [8], 55.2 µM (inactive); in [9] it was > 100 µM (inactive); in test [10], 49.8 µM (inactive); in test [11], 54.2 µM (inactive); in test [12], > 100 µM (inactive). Besides, the GI50 in test [13] was 47.9 µM (inactive); in test [14] it was 40.4 µM (inactive); in test [15], 93.5 µM (inactive); in test [16], > 100 µM (inactive); in test [17] it was 40.7 µM (inactive); in [18], 39.1 µM (inactive). In addition, the GI50 in [19] is 24.9 µM (inactive); in [20], 59.8 µM (inactive).
For the compound `C#CCOC(=O)C(N)CC(N)=O` (stereo not given), the GI50 in test [1], in [2], in test [3], in [4], in test [5] and in test [6] was > 100 µM (inactive) in each case. Further, the GI50 was > 100 µM (inactive) in [7]; > 31.6 µM (inactive) in test [8]; > 100 µM (inactive) in test [9]; > 100 µM (inactive) in [10]; > 100 µM (inactive) in test [11]; > 100 µM (inactive) in [12]. The GI50 in test [13], in [14], in test [15], in test [16], in [17] and in test [18] was > 100 µM (inactive) throughout. The GI50 in test [19] and in [20] was > 100 µM (inactive) throughout.
Take `Nc1cc(CO)cc(Nc2c3ccccc3nc3occc23)c1`: the GI50 in test [1] was 29.9 µM (inactive); in test [2] it was 51.4 µM (inactive); in test [3], 28.6 µM (inactive); in test [4], 28.6 µM (inactive); in [5], 24.8 µM (inactive); in test [6], 22.8 µM (inactive). The GI50 was 37.2 µM (inactive) in [7]; 6.76 µM (inactive) in [8]; 24.5 µM (inactive) in test [9]; 33.8 µM (inactive) in test [10]; 36.6 µM (inactive) in [11]; 33.6 µM (inactive) in [12]. Also, the GI50 in test [13] was 10.5 µM (inactive); in test [14], 25.9 µM (inactive); in test [15], 92 µM (inactive); in test [16], > 100 µM (inactive); in test [17] it was 26.5 µM (inactive); in test [18], 23.1 µM (inactive). Further, the GI50 in test [19] was 3.91 µM (inactive); in test [20], 45.9 µM (inactive).
`COC(Cc1ccccc1)NC(C)=O` (stereo not given): the GI50 in [1], in test [2], in [3], in test [4], in test [5] and in test [6] was > 100 µM (inactive) in each case. Further, the GI50 in test [7], in test [8], in [9], in [10], in test [11] and in test [12] was > 100 µM (inactive) in each case. The GI50 in test [13], in test [14], in test [15], in [16], in test [17] and in test [18] was > 100 µM (inactive) each time. The GI50 in test [19] and in test [20] was > 100 µM (inactive) each time.
As for `COc1cc(O)c2c(c1)C(O)C(O)CC1OC1C(=O)/C=C/CC(C)OC2=O` (stereo not given), the GI50 is 3.52 µM (inactive) in test [1]; 5.42 µM (inactive) in test [2]; 1.08 µM (active) in [3]; 0.0877 µM (active) in test [4]; 1.11 µM (active) in [5]; 0.216 µM (active) in [6]. Besides, the GI50 was 18 µM (inactive) in [7]; 0.0794 µM (active) in test [8]; 2.48 µM (inactive) in test [9]; 10.4 µM (inactive) in test [10]; 3.88 µM (inactive) in test [11]; 0.0933 µM (active) in [12]. Further, the GI50 was 0.838 µM (active) in test [13]; 0.454 µM (active) in test [14]; 0.029 µM (active) in test [15]; 12.2 µM (inactive) in test [16]; 3.1 µM (inactive) in test [17]; 1.64 µM (inactive) in test [18]. Further, the GI50 in test [19] is 2.7 µM (inactive); in [20] it was 8.18 µM (inactive).

Values taken from ChEMBL document CHEMBL1201862, “PubChem BioAssay data set” (2004).
